Assay results reported in patent publication US11970515B1, “Crystal form of Brassinosteroid (BR) analogue, and preparation method and use thereof” (CHENGDU NEWSUN CROP SCIENCE CO., LTD., priority 2021, dated 2024).

Assays:
[1] = Stability test of crystal forms in high-temperature environment at 80° C.±2° C.; format: physicochemical
Protocol: Appropriate amounts of the crystal form I and crystal form II were separately placed in a high-temperature environment at 80° C.±2° C. for stability experiments, and the experimental results were shown in Table 1.

[2] = Solubility in ethanol; format: physicochemical; details: different temperatures
Protocol: (§1) 2. Solubility Research • (1) 50 mg of the crystal form I and crystal form II were separately added to a test tube, slowly added with ethanol dropwise at different temperatures while conducting vibration until completely dissolved. Weighing was conducted and a total mass was recorded, converted into volume, expressed as mg/mL. The experimental results were shown in FIG. 11 and FIG. 12. • (2) 50 mg of the crystal form I and crystal form II were separately added to a test tube, slowly added with water dropwise at different temperatures while conducting vibration until completely dissolved. Weighing was conducted and a total mass was recorded, converted into volume, expressed as mg/mL.

[3] = Solubility in water; format: physicochemical; details: different temperatures
Protocol: as §1

[4] = system: tobacco seedlings; experiment: Promoting growth of tobacco seedlings (leaf spray, leaf area growth rate); format: in vivo; details: for Growth-promoting effect (in words): 7 d after treatment; for 7-day leaf area growth rate (%): leaf spray, 7 d
Protocol: The example of the present disclosure provided use of the novel crystal form I and the novel crystal form II in promoting plant growth, specifically an experiment of promoting growth of tobacco seedlings was taken as an example, the steps were as follows:
In the present disclosure, the novel crystal form I and the novel crystal form II each were prepared with anhydrous ethanol into a 10 mg/ml mother solution, and used immediately during the experiment.
Tobacco seedlings with a seedling age of 7 d were transplanted and planted in a cultivation room, and the seedlings were subjected to recovery for 2 d before testing. After the treatment agent was formulated according to the experimental design, the leaves of the tobacco seedlings were evenly sprayed, and each treatment was repeated 3 times, with 2 plants in each repetition, that is, 6 seedlings in each treatment. […] The RGB AREA_MM parameter (leaf area/mm^2) of the tobacco was recorded with a plant phenotype instrument before and 7 d […], and a growth rate of the leaf area was calculated to evaluate a growth-promoting effect of the drug. The formula for calculating a leaf area growth rate was as follows: Growth rate (%)=(final leaf area−initial leaf area)×100%/initial leaf area

[5] = system: tobacco seedlings; experiment: Promoting cold resistance of tobacco (chlorophyll fluorescence after 4° C. cold injury); format: in vivo
Protocol: The example of the present disclosure provided use of the novel crystal form II in promoting stress resistance of plants, specifically an experiment of promoting cold resistance of tobacco was taken as an example, the steps were as follows:
In the present disclosure, the novel crystal form II was prepared with anhydrous ethanol into a 10 mg/ml mother solution, and used immediately during the experiment.
After the treatment agents were prepared according to Table 6, the leaves of the tobacco seedlings were evenly sprayed in the morning. […] After 1 d of recovery, cold injury (4° C.) treatment was conducted, while other conditions remained the same as those during normal culture. The chlorophyll fluorescence QY-max parameter (theoretical maximum photosynthetic capacity) and Fv/Fm (maximum photon yield of PSII) of tobacco were recorded before drug treatment, after 6 h and 24 h of low-temperature treatment, and after 24 h of recovery at room temperature (25° C.) separately with a plant phenotype instrument.
QY-max represents the theoretical maximum photosynthetic capacity of plants, and the smaller its reduction rate, the better the plant's low-temperature resistance. Fv/Fm-lss represents the maximum photon yield of PSII, similar to QY-max, the smaller its reduction rate, the better the plant's low-temperature resistance. […] Afterwards, each treatment was placed at room temperature (25° C.) for recovery.

[6] = system: corn seeds; experiment: Immersing corn seeds to promote germination and growth of corn; format: in vivo; details: for Bud vigor index / Root vigor index / Germination rate (%): 7th day; for Germination rate (%): seeds immersed 24 h
Protocol: The example of the present disclosure provided use of the novel crystal form I and the novel crystal form II in promoting plant growth, specifically an experiment of immersing corn seeds to promote germination and growth of corn was taken as an example, the steps were as follows:
In the present disclosure, the novel crystal form I was prepared with anhydrous ethanol into a 10 mg/ml mother solution, and used immediately during the experiment.
The agents were prepared according to the experimental design. 20 normal plump corn seeds were selected, placed in the agent, and immersed at 26° C. for 24 h. The seeds were washed with water, placed in a culture box and placed in a constant-temperature incubator for germination. The germination was conducted in 2 periods: 14 h of light illumination, at 28° C.; 10 h in the dark, at 25° C., and for 7 d. Each treatment was repeated 3 times. During the whole experiment, 5 ml of water was regularly added with a pipette at 9:00 every day to keep the culture box moist. After 7 days, the germination rate was counted, the shoot length and root length were measured, and the root vigor and shoot vigor were calculated. Germination rate=germinated number of seeds treated on 7th day/total number of treated seeds×100%; Bud vigor index=germination rate of 7th day×seedling bud length of 7th day; Root vigor index=germination rate of 7th day×seedling root length of 7th day.

[7] = 0.003 ppm, low-temperature (4° C.) treatment for 6 h
[8] = 0.003 ppm, low-temperature (4° C.) treatment for 24 h
[9] = 0.003 ppm, room-temperature (25° C.) recovery for 24 h
[10] = 0.03 ppm, low-temperature (4° C.) treatment for 6 h
[11] = 0.03 ppm, low-temperature (4° C.) treatment for 24 h
[12] = 0.03 ppm, room-temperature (25° C.) recovery for 24 h
[13] = 0.3 ppm, low-temperature (4° C.) treatment for 6 h
[14] = 0.3 ppm, low-temperature (4° C.) treatment for 24 h
[15] = 0.3 ppm, room-temperature (25° C.) recovery for 24 h

CC(C)(O)CC[C@@H](O)[C@](C)(O)C1CC[C@@]2(O)[C@H]3CC(=O)[C@@H]4C[C@@H](O)[C@@H](O)C[C@]4(C)[C@H]3CC[C@]12C (single isomer, unassigned) [Novel crystal form II]
Stability in high-temperature environment (in words) [1]: highly stable in the high-temperature environment, and no crystal form change occurred | Content (%) ([1]; test time 0 d): 99.87% | Content of other substances (%) ([1]; test time 0 d): 0.13% | XRPD ([1]; test time 0 d): Unchanged | Content (%) ([1]; test time 5 d): 99.84% | Content of other substances (%) ([1]; test time 5 d): 0.16% | XRPD ([1]; test time 5 d): Unchanged | Content (%) ([1]; test time 10 d): 99.87% | Content of other substances (%) ([1]; test time 10 d): 0.13% | XRPD ([1]; test time 10 d): Unchanged | Solubility in ethanol (in words) [2]: desirable solubility | Solubility in water (in words) [3]: desirable solubility | Growth-promoting effect (in words) ([4]; 0.003 ppm): obvious growth-promoting effects | 7-day leaf area growth rate (%) ([4]; 0.003 ppm): 169.02 ± 0.26% | 7-day leaf area growth rate (%) ([4]; 0.03 ppm): 153.44 ± 0.19% | 7-day leaf area growth rate (%) ([4]; 0.3 ppm): 150.31 ± 0.39% | Fv/Fm-lss change rate (%) [5, 7]: −30.1 ± 0.22% | QY-max change rate (%) [5, 7]: −10.4 ± 0.13% | Fv/Fm-lss change rate (%) [5, 8]: −46.1 ± 0.28% | QY-max change rate (%) [5, 8]: −31.0 ± 0.18% | Fv/Fm-lss change rate (%) [5, 9]: −16.2 ± 0.27% | QY-max change rate (%) [5, 9]: −10.0 ± 0.24% | Reduction rate of QY-max and Fv/Fm-lss versus water control (in words) ([5]; 0.03 ppm, after 6 h of low-temperature treatment): significantly lower than that of the water control | Recovery effect, comparison of concentrations (in words) ([5]; 0.03 ppm, after 24 h of recovery at room temperature): the best | Fv/Fm-lss change rate (%) [5, 10]: −14.3 ± 0.13% | QY-max change rate (%) [5, 10]: −3.6 ± 0.33% | Fv/Fm-lss change rate (%) [5, 11]: −33.4 ± 0.12% | QY-max change rate (%) [5, 11]: −27.6 ± 0.16% | Fv/Fm-lss change rate (%) [5, 12]: 0.3 ± 0.16% | QY-max change rate (%) [5, 12]: −0.6 ± 0.18% | Fv/Fm-lss change rate (%) [5, 13]: −26.4 ± 0.27% | QY-max change rate (%) [5, 13]: −7.9 ± 0.25% | Fv/Fm-lss change rate (%) [5, 14]: −44.4 ± 0.25% | QY-max change rate (%) [5, 14]: −30.0 ± 0.27% | Fv/Fm-lss change rate (%) [5, 15]: −4.5 ± 0.21% | QY-max change rate (%) [5, 15]: −5.2 ± 0.13% | Recovery effect versus clean water control (in words) ([5]; each concentration, after 24 h of recovery at room temperature): better than that of the clean water control | Low-temperature resistance, summary (in words) ([5]; in vivo): bioactivity of anti-low temperature

CC(C)(O)CC[C@@H](O)[C@](C)(O)C1CC[C@@]2(O)[C@H]3CC(=O)[C@@H]4C[C@@H](O)[C@@H](O)C[C@]4(C)[C@H]3CC[C@]12C (single isomer, unassigned) [Novel crystal form I]
Stability in high-temperature environment (in words) [1]: highly stable in the high-temperature environment, and no crystal form change occurred | Content (%) ([1]; test time 0 d): 99.98% | Content of other substances (%) ([1]; test time 0 d): 0.02% | XRPD ([1]; test time 0 d): Unchanged | Content (%) ([1]; test time 5 d): 99.93% | Content of other substances (%) ([1]; test time 5 d): 0.07% | XRPD ([1]; test time 5 d): Unchanged | Content (%) ([1]; test time 10 d): 99.96% | Content of other substances (%) ([1]; test time 10 d): 0.04% | XRPD ([1]; test time 10 d): Unchanged | Solubility in ethanol (in words) [2]: desirable solubility | Solubility in water (in words) [3]: desirable solubility | Growth-promoting effect (in words) ([4]; 0.003 ppm): obvious growth-promoting effects | 7-day leaf area growth rate (%) ([4]; 0.003 ppm): 179.02 ± 0.15% | 7-day leaf area growth rate (%) ([4]; 0.03 ppm): 166.45 ± 0.18% | 7-day leaf area growth rate (%) ([4]; 0.3 ppm): 145.98 ± 0.39% | Bud vigor index ([6]; 0.003 ppm): 7.77 ± 0.36 | Root vigor index ([6]; 0.003 ppm): 8.80 ± 0.29 | Germination rate (%) ([6]; 0.003 ppm): 72.12 ± 1.15% | Effect on root and bud vigor indexes versus control CK (in words) ([6]; 0.03 ppm): best effect, which was obviously better than that of the control CK | Germination effect on corn compared with the water control (in words) ([6]; 0.03 ppm): germination-promoting effect | Bud vigor index ([6]; 0.03 ppm): 10.93 ± 0.17 | Root vigor index ([6]; 0.03 ppm): 10.89 ± 0.24 | Germination rate (%) ([6]; 0.03 ppm): 77.34 ± 1.99% | Bud vigor index ([6]; 0.3 ppm): 9.26 ± 0.24 | Root vigor index ([6]; 0.3 ppm): 9.77 ± 0.53 | Germination rate (%) ([6]; 0.3 ppm): 75.38 ± 2.37% | Effect on root and bud vigor indexes (in words) ([6]; in vivo): effect of improving the root vigor index and bud vigor index
